The text below walks through data of patent publication US8338594B2, “Pyrrolotriazine derivatives useful for treating cancer through inhibition of aurora kinase” (Bayer HealthCare LLC, priority 2005, dated 2012).

By IC50 is commonly meant the concentration needed to halve the response being measured. Low values mean inhibition by little substance, high ones a need for much substance.

SMILES strings stand for the structures.

Assay [1] deals with T1, murine Aurora Kinase 2 (mAur2) (Mus musculus, UniProt P97477).
T1 construct: N-terminal His-tagged mAur2 (amino acids 98-395; DRT, Protein Sciences); His (N); made in house
T1 sequence (P97477 98-395): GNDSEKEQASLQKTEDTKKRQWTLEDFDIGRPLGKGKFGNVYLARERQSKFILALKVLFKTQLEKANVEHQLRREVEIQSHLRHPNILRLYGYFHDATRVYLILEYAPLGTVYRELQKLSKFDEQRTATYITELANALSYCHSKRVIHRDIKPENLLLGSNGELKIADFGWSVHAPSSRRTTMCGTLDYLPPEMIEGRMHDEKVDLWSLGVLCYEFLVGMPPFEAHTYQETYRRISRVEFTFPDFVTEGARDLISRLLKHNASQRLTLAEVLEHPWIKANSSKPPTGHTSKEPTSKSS
Kind of assay: murine Aurora Kinase 2 (mAur2) biochemical Scintillation Proximity Assay. The following applies: SPA, biotinylated Peptide 830, 1 μM ATP, 20 nM His-tagged mAur2. As to the method:
(§1) Using a Scintillation Proximity Assay (SPA) format, the murine Aurora Kinase 1 (mAur1) and murine Aurora Kinase 2 (mAur2) biochemical assay measures the ability of mAur2 to phosphorylate the substrate, biotinylated Peptide 830 (DRT, Protein Sciences). Once radiolabeled by the enzyme, the biotinylated substrate is captured on streptavidin-coated SPA beads and the radioactivity, in proximity to the SPA beads, is measured. For the generation of IC50 curves, the reaction was performed in 96-well isoplates (Wallac 1450-514) under the following conditions: a 10 mM stock solution of compound (in 100% dimethylsulfoxide; DMSO) was diluted 10 fold in 100% DMSO. Compounds were then serially diluted, 1:5, for an eight point dose curve, in 100% DMSO. A volume of 1 μL of the diluted compound was added to the reaction buffer that consisted of 25 mM HEPES pH 7.5, 1 mM MnCl2, 1 mM MgCl2, 1 mM DTT, 0.01% Tween20. A mixture with a final concentration per well of 1 μM cold ATP, 0.1 μCi ^33P-ATP (Amersham AH9968) and 1 μM biotinylated Peptide 830 was then added. The reaction was initiated with the addition of either recombinant, GST-tagged mAur 1 (amino acids 67-345) that was co-expressed with human INCENP (amino acids 704-919) (DRT, Protein Sciences) at a final concentration of 12 nM or N-terminal His-tagged mAur2 (amino acids 98-395; DRT, Protein Sciences) at a final concentration of 20 nM. The final reaction volume in each well was 100 μL and the final compound concentration ranged from 10 μM-[…] in 1% DMSO. The reaction mixture was allowed to incubate for 1-2 hours with gentle agitation at 25° C. To terminate the reaction, streptavidin-coated SPA beads (Amersham RPNQ0007; 50 μL of 0.5 mg beads dissolved in 165 mM EDTA) were then added to each well and incubation proceeded for an additional 15 minutes at 25° C. The plate was then centrifuged for ten minutes at 2000 rpm. Phosphorylation of the peptide substrate was measured using a Wallac 1450 Microbeta Plus Liquid Scintillation Counter.
Background: In a scintillation proximity assay essentially only radioactivity close to the scintillant gives light.

In assay [2] the target is T2, murine Aurora Kinase 1 (mAur1) (Mus musculus, UniProt O70126).
T2 construct: recombinant, GST-tagged mAur 1 (amino acids 67-345) that was co-expressed with human INCENP; GST; made in house
T2 sequence (O70126 67-345): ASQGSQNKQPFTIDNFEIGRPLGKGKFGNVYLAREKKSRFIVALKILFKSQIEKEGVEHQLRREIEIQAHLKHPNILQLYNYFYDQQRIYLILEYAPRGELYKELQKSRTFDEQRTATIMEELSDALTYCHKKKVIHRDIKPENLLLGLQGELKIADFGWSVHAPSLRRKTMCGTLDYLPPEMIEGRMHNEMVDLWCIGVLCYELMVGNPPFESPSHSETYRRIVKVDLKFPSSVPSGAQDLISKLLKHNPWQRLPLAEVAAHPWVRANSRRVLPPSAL
T2 sequence (Q9NQS7 704-918 partner): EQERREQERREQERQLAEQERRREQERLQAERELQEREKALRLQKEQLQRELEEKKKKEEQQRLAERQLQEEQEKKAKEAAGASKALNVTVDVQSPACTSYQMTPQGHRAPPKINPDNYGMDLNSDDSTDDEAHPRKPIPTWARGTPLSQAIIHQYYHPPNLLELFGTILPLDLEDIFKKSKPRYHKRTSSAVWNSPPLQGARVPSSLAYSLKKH
In words: murine Aurora Kinase 1 (mAur1) biochemical Scintillation Proximity Assay. Conditions: SPA, biotinylated Peptide 830, 1 μM ATP, 12 nM GST-tagged mAur 1 co-expressed with human INCENP. As to the method: as §1

Take `Nc1ncnn2cc(C(=O)NCC(F)(F)F)c(-c3ccc(Nc4nc5cc6c(cc5[nH]4)OC(F)(F)O6)c(F)c3)c12` [Example 60, 4-amino-5-{4-[(2,2-difluoro-5H-[1,3]dioxolo[4,5-f]benzimidazol-6-yl)amino]-3-fluorophenyl}-N-(2,2,2-trifluoroethyl)pyrrolo[2,1-f][1,2,4]triazine-6-carboxamide]: the IC50 in assay [1] and in assay [2] was less than 100 nM in each case.

As to `Nc1ncnn2cc(C(=O)O)c(-c3ccc(Nc4nc5cc(F)cc(F)c5[nH]4)cc3)c12` [Example 71, 4-amino-5-{4-[(5,7-difluoro-1H-benzimidazol-2-yl)amino]phenyl}pyrrolo[2,1-f][1,2,4]triazine-6-carboxylic acid], the IC50 in assay [1] and in assay [2] was less than 100 nM in each case.

In the case of `CCNC(=O)c1cn2ncnc(N)c2c1-c1ccc(Nc2nc3cc(F)cc(F)c3[nH]2)cc1` [Example 73, 4-amino-5-{4-[(5,7-difluoro-1H-benzimidazol-2-yl)amino]phenyl}-N-ethylpyrrolo[2,1-f][1,2,4]triazine-6-carboxamide], the IC50 in assay [1] and in assay [2] was less than 100 nM in each case.

As for `CN(C)C(=O)c1cn2ncnc(N)c2c1-c1ccc(Nc2nc3cc(F)cc(F)c3[nH]2)cc1` [Example 74, 4-amino-5-{4-[(5,7-difluoro-1H-benzimidazol-2-yl)amino]phenyl}-N,N-dimethylpyrrolo[2,1-f][1,2,4]triazine-6-carboxamide], the IC50 in assay [1] and in assay [2] was less than 100 nM in each case.

Take `COCCNC(=O)c1cn2ncnc(N)c2c1-c1ccc(Nc2nc3cc(F)cc(F)c3[nH]2)cc1` [Example 75, 4-amino-5-{4-[(5,7-difluoro-1H-benzimidazol-2-yl)amino]phenyl}-N-(2-methoxyethyl)pyrrolo[2,1-f][1,2,4]triazine-6-carboxamide]: the IC50 in assay [1] and in assay [2] was less than 100 nM in each case.

On to `Nc1ncnn2cc(C(=O)N3CCOCC3)c(-c3ccc(Nc4nc5cc(F)cc(F)c5[nH]4)cc3)c12` [Example 76, 5-{4-[(5,7-difluoro-1H-benzimidazol-2-yl)amino]phenyl}-6-(morpholin-4-ylcarbonyl)pyrrolo[2,1-f][1,2,4]triazin-4-amine], for which the IC50 in assay [1] and in assay [2] was less than 100 nM throughout.

Turning to `Nc1ncnn2cc(C(=O)NCC3CC3)c(-c3ccc(Nc4nc5cc(F)cc(F)c5[nH]4)cc3)c12` [Example 80, 4-amino-N-(cyclopropylmethyl)-5-{4-[(5,7-difluoro-1H-benzimidazol-2-yl)amino]phenyl}pyrrolo[2,1-f][1,2,4]triazine-6-carboxamide], the IC50 in assay [1] and in assay [2] was less than 100 nM each time.

For `NC(=O)C1CCN(C(=O)c2cn3ncnc(N)c3c2-c2ccc(Nc3nc4cc(F)cc(F)c4[nH]3)cc2)CC1` [Example 81, 1-[(4-amino-5-{4-[(5,7-difluoro-1H-benzimidazol-2-yl)amino]phenyl}pyrrolo[2,1-f][1,2,4]triazin-6-yl)carbonyl]piperidine-4-carboxamide], the IC50 in assay [1] and in assay [2] was less than 100 nM each time.

In the case of `Nc1ncnn2cc(C(=O)NC3CCCC3)c(-c3ccc(Nc4nc5cc(F)cc(F)c5[nH]4)cc3)c12` [Example 85, 4-amino-N-cyclopentyl-5-{4-[(5,7-difluoro-1H-benzimidazol-2-yl)amino]phenyl}pyrrolo[2,1-f][1,2,4]triazine-6-carboxamide], the IC50 in assay [1] and in assay [2] was less than 100 nM in each case.

`CCN(C)C(=O)c1cn2ncnc(N)c2c1-c1ccc(Nc2nc3cc(F)cc(F)c3[nH]2)cc1` [Example 89, 4-amino-5-{4-[(5,7-difluoro-1H-benzimidazol-2-yl)amino]phenyl}-N-ethyl-N-methylpyrrolo[2,1-f][1,2,4]triazine-6-carboxamide]: the IC50 in assay [1] and in assay [2] was less than 100 nM each time.

As for `CCN(C(=O)c1cn2ncnc(N)c2c1-c1ccc(Nc2nc3cc(F)cc(F)c3[nH]2)cc1)C(C)C` [Example 90, 4-amino-5-{4-[(5,7-difluoro-1H-benzimidazol-2-yl)amino]phenyl}-N-ethyl-N-isopropylpyrrolo[2,1-f][1,2,4]triazine-6-carboxamide], the IC50 in assay [1] and in assay [2] was less than 100 nM each time.

For the compound `COCC1CCCN1C(=O)c1cn2ncnc(N)c2c1-c1ccc(Nc2nc3cc(F)cc(F)c3[nH]2)cc1` (stereo not shown) [Example 91, 5-{4-[(5,7-difluoro-1H-benzimidazol-2-yl)amino]phenyl}-6-{[2-(methoxymethyl)pyrrolidin-1-yl]carbonyl}pyrrolo[2,1-f][1,2,4]triazin-4-amine], the IC50 in assay [1] and in assay [2] was less than 100 nM throughout.

For `CC(C)N(C)C(=O)c1cn2ncnc(N)c2c1-c1ccc(Nc2nc3cc(F)cc(F)c3[nH]2)cc1` [Example 92, 4-amino-5-{4-[(5,7-difluoro-1H-benzimidazol-2-yl)amino]phenyl}-N-isopropyl-N-methylpyrrolo[2,1-f][1,2,4]triazine-6-carboxamide], the IC50 in assay [1] and in assay [2] was less than 100 nM in each case.

For `CCCN(C)C(=O)c1cn2ncnc(N)c2c1-c1ccc(Nc2nc3cc(F)cc(F)c3[nH]2)cc1` [Example 93, 4-amino-5-{4-[(5,7-difluoro-1H-benzimidazol-2-yl)amino]phenyl}-N-methyl-N-propylpyrrolo[2,1-f][1,2,4]triazine-6-carboxamide], the IC50 in assay [1] and in assay [2] was less than 100 nM each time.

For the compound `Nc1ncnn2cc(C(=O)N3CCCC3)c(-c3ccc(Nc4nc5cc(F)cc(F)c5[nH]4)cc3)c12` [Example 96, 5-{4-[(5,7-difluoro-1H-benzimidazol-2-yl)amino]phenyl}-6-(pyrrolidin-1-ylcarbonyl)pyrrolo[2,1-f][1,2,4]triazin-4-amine], the IC50 in assay [1] and in assay [2] was less than 100 nM throughout.

On to `Nc1ncnn2cc(C(=O)O)c(-c3ccc(Nc4nc5ccc(Oc6ccccc6)c(F)c5[nH]4)cc3)c12` [Example 101, 4-amino-5-{4-[(7-fluoro-6-phenoxy-1H-benzimidazol-2-yl)amino]phenyl}pyrrolo[2,1-f][1,2,4]triazine-6-carboxylic acid], for which the concentration for half-maximal inhibition (IC50) in assay [1] and in assay [2] was less than 100 nM in each case.

Take `Nc1ncnn2cc(C(=O)NC3CC3)c(-c3ccc(Nc4nc5ccc(Oc6ccccc6)c(F)c5[nH]4)cc3)c12` [Example 105, 4-amino-N-cyclopropyl-5-{4-[(7-fluoro-6-phenoxy-1H-benzimidazol-2-yl)amino]phenyl}pyrrolo[2,1-f][1,2,4]triazine-6-carboxamide]: the IC50 in assay [1] and in assay [2] was less than 100 nM in each case.

With `CCN(C)C(=O)c1cn2ncnc(N)c2c1-c1ccc(Nc2nc3ccc(Oc4ccccc4)c(F)c3[nH]2)cc1` [Example 106, 4-amino-N-ethyl-5-{4-[(7-fluoro-6-phenoxy-1H-benzimidazol-2-yl)amino]phenyl}-N-methylpyrrolo[2,1-f][1,2,4]triazine-6-carboxamide], the IC50 in assay [1] and in assay [2] was less than 100 nM throughout.

Consider `Nc1ncnn2cc(C(=O)N3CCCCC3)c(-c3ccc(Nc4nc5ccc(Oc6ccccc6)c(F)c5[nH]4)cc3)c12` [Example 107, 5-{4-[(7-fluoro-6-phenoxy-1H-benzimidazol-2-yl)amino]phenyl}-6-(piperidin-1-ylcarbonyl)pyrrolo[2,1-f][1,2,4]triazin-4-amine], for which the IC50 in assay [1] and in assay [2] was less than 100 nM throughout.

Take `Nc1ncnn2cc(C(=O)N3CCOCC3)c(-c3ccc(Nc4nc5ccc(Oc6ccccc6)c(F)c5[nH]4)cc3)c12` [Example 108, 5-{4-[(7-fluoro-6-phenoxy-1H-benzimidazol-2-yl)amino]phenyl}-6-(morpholin-4-ylcarbonyl)pyrrolo[2,1-f][1,2,4]triazin-4-amine]: the IC50 in assay [1] and in assay [2] was less than 100 nM in each case.
